Results reported in PMC4601023, “Novel anticancer agent, SQAP, binds to focal adhesion kinase and modulates its activity” (Scientific Reports, 2015).

Legend:
[1] = biological target: T1, ADRM1 (Homo sapiens, UniProt Q16186); assay: SPR analysis, immobilized full length His-ADRM1; format: binding; conditions: Biacore 3000, CM5 chip, 25 °C, read-out: dissociation constant (KD) for ADRM1
T1 construct: ADRM1 and HR23B human full length proteins were purchased; His-tag; purchased ATgen (Gyeonggi-do, Korea)
T1 sequence (Q16186 whole entry): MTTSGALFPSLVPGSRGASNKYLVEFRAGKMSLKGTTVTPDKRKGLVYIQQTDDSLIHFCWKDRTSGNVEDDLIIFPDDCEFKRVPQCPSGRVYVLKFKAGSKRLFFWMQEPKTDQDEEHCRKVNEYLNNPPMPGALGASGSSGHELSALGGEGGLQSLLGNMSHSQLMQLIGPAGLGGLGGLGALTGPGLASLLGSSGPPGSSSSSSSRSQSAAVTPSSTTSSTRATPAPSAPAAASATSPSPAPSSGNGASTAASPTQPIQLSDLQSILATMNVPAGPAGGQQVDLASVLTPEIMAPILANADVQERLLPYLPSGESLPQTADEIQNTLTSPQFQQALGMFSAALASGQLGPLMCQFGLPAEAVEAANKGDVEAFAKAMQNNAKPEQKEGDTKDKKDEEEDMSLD
Source text: SPR was utilized as an independent confirmation of the kinetic parameters between SQAP and the putative binding proteins. […] The recombinant proteins were then expressed in Escherichia coli and purified to homogeneity. In addition, full length, His-tagged ADRM1 and GST-tagged HR23B (GST-HR23B) were also used. The proteins were first immobilized on a CM5 sensor chip of the SPR biosensor (Biacore 3000). For GST-HR23B analysis, a GST protein was additionally immobilized and used as a control in order to eliminate possible nonspecific binding of SQAP. SQAP samples at different concentrations were then injected over the proteins immobilized on the sensor chip. As a negative control we used sulfoquynovosylpropanediol (SQP), which lacks the fatty acid moiety of SQAP (Fig. 1). […]
The binding kinetics of SCP-2, MFE-2, ADRM1, HR23B and FAK with SQAP and SQP were analyzed on a Biacore 3000 instrument (GE Healthcare, Little Chalfont, UK). […] The buffer of purified peptides was exchanged to HBS-P (150 mM NaCl, 0.005% Surfactant P20, 10 mM HEPES-NaOH pH 7.4) using a PD 10 column (GE Healthcare, Little Chalfont, UK) and the concentrations were quantified using DC protein assay kit (Bio-Rad Laboratories, Hercules, CA, USA). […] Kinetic parameters were determined by analyzing the data using BIAevaluation 4.1 software (GE Healthcare, Little Chalfont, UK).

[2] = test system: HUVEC cells; assay: WST-8 cell viability assay, HUVEC; format: cell-based, human; conditions: 17 h, SQAP 10 and 20 µM
Description: HUVEC and A549 cells were seeded into a 96-well culture plate (2 × 10^4 cells/well). The following day, cells were treated with SQAP or vehicle in a medium containing 1% FBS and VEGF (50 ng/mL) for 17 h (HUVEC) or fibronectin (10 μg/mL) for 46 h (A549). Cell viability was measured using Cell Count Reagent SF (Nacalai Tesque, Kyoto, Japan) following the manufacturer’s instructions. Briefly, 1/10 volume of the WST-8 solution was added to each well, and the plates were incubated at 37 °C for 1 h. Then, cell viability was determined colorimetrically by measuring OD450 using a microplate reader on a Wallac ARVO 5X microplate reader (Perkin Elmer, Waltham, MA, USA).
control SQAP 10 µM SQAP 20 µM
Livecellswere measured with SF reagent under similarconditionsas describedin thewound healing
assayinFig.5. (A)HUVEC and (B)A549 cells.
(also on this page, place not known: Cell viability (%) Cell viability (%) Live cells were similar conditions as described in the wound assay in Fig. 5. (A) HUVEC (B) A549)

[3] = test system: paxillin phosphorylation at Y118 in A549; assay: Paxillin phosphorylation in A549, Western blotting; format: cell-based, human; conditions: A549, 21 h treatment, 10 µM
Description: Fibronectin is a glycoprotein located in the extracellular matrix that binds to integrins. […] A549 lung cancer cells have been used before for studying cell migration because of their metastatic model potential. A549 cells are also one of the tumor cell lines sensitive to SQMG[9]. Therefore, we studied the phosphorylation of FAK in A549 cells (Fig. 5C,D). SQAP could inhibit the phosphorylation of FAK at Y397 and Y925 after 1 h treatment in a dose dependent manner. […] We also examined paxillin and Akt phosphorylation in A549 as downstream targets of FAK. […] We hypothesize that SQAP diminish on Akt phosphorylation being more readily in A549 cancer cells than in HUVEC endothelial cells might be due to a higher Akt basal activity on cancer cells.
Cells were harvested and solubilized in RIPA buffer (20 mM Tris-HCl, pH 7.5, 1% Sodium deoxycholate, 150 mM NaCl, 5 mM EDTA, 1% Triton X-100, 0.1% SDS, 0.1%, 1 mM PMSF, 1 mM vanadate and 1 μg/mL leupeptin). Protein quantification was determined using the DC protein assay kit (Bio-Rad, Hercules, CA, USA). A total of 15 μg of each protein sample were separated by SDS–PAGE gels and blotted onto polyvinylidene difluoride membranes (Merck, Kenilworth, NJ, US). […]

[4] = test system: FAK phosphorylation (Y397, Y925) in HUVEC cells; assay: FAK phosphorylation level in HUVEC, Western blotting; format: cell-based, human
Description: HUVEC cells were incubated for 20 h in serum-free medium in 60 mm dishes. SQAP, SQMG or SQP was added and incubated for 30 min followed by addition of 50 ng/mL VEGF (RD systems, Minneapolis, MN. USA) and incubation for another 30 min. FAK phosphorylation level was analyzed by Western blotting as described in the next section.
Cells were harvested and solubilized in RIPA buffer (20 mM Tris-HCl, pH 7.5, 1% Sodium deoxycholate, 150 mM NaCl, 5 mM EDTA, 1% Triton X-100, 0.1% SDS, 0.1%, 1 mM PMSF, 1 mM vanadate and 1 μg/mL leupeptin). Protein quantification was determined using the DC protein assay kit (Bio-Rad, Hercules, CA, USA). A total of 15 μg of each protein sample were separated by SDS–PAGE gels and blotted onto polyvinylidene difluoride membranes (Merck, Kenilworth, NJ, US). After blocking for 1 h with Blocking-One (Nacalai Tesque, Kyoto, Japan), proteins were detected by incubating the membranes with the primary antibody at 4 °C overnight (anti-Y397 2:2000, anti-Y925 5:2000 and anti-FAK 0.5:2000) followed by incubation with horseradish peroxidase-conjugated secondary antibodies at room temperature for 1 h (anti-mouse 0.5:2000 and anti-rabbit 0.4:2000).

CCCCCCCCCCCCCCCCCC(=O)OCCCO[C@H]1O[C@H](CS(=O)(=O)O)[C@@H](O)[C@H](O)[C@H]1O [SQAP, sulfoquynovosylacylpropanediol]
Kd [1]: 9.65 µM | cytotoxicity (WST-8 cell viability) [2]: noncytotoxic | paxillin phosphorylation at Y118 [3]: inhibition of paxillin phosphorylation at Y118 took 21 h treatment | phosphorylation level of FAK at Y397 and at Y925 after VEGF stimulation ([4]; VEGF 50 ng/mL, 1 h): appreciably reduced | phosphorylation of FAK in the absence of VEGF ([4]; no VEGF, within 1 h): inhibited
